≈ marks a conversion by molar mass, not a printed value. Entries after “also recorded” stand apart in the source; their conditions may differ. Like-named read-outs stand apart in the source and are kept apart here.
Legend:
[1] = system: colorectal cancer cell (HCT-116); test: Cytotoxic activity, MTT assay, HCT-116; type: cell-based, human; details: for IC50: Homo sapiens, HCT-116, 48 h, read-out: HCT-116 IC50
[2] = system: prostate carcinoma cells (PC-3); test: Cytotoxic activity, MTT assay, PC-3; type: cell-based, human; details: for IC50: Homo sapiens, 48 h, read-out: PC-3 IC50
[3] = system: hepatocellular carcinoma cells (HepG-2); test: Cytotoxic activity, MTT assay, HepG-2; type: cell-based, human; details: for IC50: Homo sapiens, HepG2, 48 h, read-out: HepG-2 IC50
[4] = system: African green monkey kidney cell line (Vero-B); test: Cytotoxic activity, MTT assay, normal Vero-B cells; type: cell-based; details: for IC50: Chlorocebus sabaeus, Vero B, read-out: VERO-B IC50
[5] = system: HCT-116, PC-3, and HepG-2; test: Antitumor activity against cancer cell lines, summary in words; type: cell-based, human; details: HCT-116, PC-3 and HepG-2 cell lines
[6] = biological target: phosphodiesterase I (Crotalus adamanteus, UniProt J3SEZ3); test: biochemical; parameters: species or system snake
phosphodiesterase I, sequence (J3SEZ3 24-851 limits assumed): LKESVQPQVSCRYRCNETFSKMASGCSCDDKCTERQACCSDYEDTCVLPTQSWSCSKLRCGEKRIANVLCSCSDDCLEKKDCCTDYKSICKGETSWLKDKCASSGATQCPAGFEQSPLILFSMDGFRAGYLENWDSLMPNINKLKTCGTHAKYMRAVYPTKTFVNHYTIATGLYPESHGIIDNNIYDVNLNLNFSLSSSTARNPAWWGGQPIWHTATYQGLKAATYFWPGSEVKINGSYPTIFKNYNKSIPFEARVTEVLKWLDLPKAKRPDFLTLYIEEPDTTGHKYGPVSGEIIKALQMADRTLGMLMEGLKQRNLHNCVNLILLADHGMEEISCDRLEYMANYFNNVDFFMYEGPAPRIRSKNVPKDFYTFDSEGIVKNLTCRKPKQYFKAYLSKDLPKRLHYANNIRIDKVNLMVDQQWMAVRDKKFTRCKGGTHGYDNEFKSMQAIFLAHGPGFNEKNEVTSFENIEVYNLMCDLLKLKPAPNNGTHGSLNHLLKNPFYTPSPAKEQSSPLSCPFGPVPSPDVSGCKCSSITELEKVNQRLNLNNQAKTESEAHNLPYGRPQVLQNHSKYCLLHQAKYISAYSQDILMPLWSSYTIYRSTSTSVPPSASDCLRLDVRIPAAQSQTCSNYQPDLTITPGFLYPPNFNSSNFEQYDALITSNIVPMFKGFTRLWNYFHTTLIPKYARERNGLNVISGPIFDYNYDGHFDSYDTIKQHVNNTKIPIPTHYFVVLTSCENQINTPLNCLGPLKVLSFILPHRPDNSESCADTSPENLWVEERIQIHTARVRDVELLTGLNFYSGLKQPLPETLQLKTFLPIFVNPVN

[7] = system: Vero cell line; test: Wound-healing assay; type: cell-based, African green monkey; details: 35 or 70 µM; up to 48 h
[8] = MTT, 48 h incubation, ± SD of three experiments
[9] = normal cells, MTT, 48 h incubation, ± SD of three experiments

Q: With `N.N.[Cl][Pt][Cl]` [Cisplatin, cis-diamineplatinum (II) dichloride, reference compound] as the molecule, how does the “HCT-116 IC50” value [1, 8] read?
A: 12.6 ± 2 mg/L

Q: What about the “PC-3 IC50” value [2, 8] of the same molecule?
A: 5 ± 0.45 mg/L

Q: And the “HepG-2 IC50” value [3, 8]?
A: 5 ± 1.5 mg/L

Q: What about the “VERO-B IC50” value [4, 9] of the same molecule?
A: 11 ± 1.3 mg/L

Q: Which IC50 [1, 8] does the source give for `C=C(C)[C@@H]1CC[C@]2(C)CC[C@]3(C)[C@H](CC[C@@H]4[C@@]5(C)CC[C@H](O)C(C)(C)[C@@H]5CC[C@]43C)[C@@H]12` [Compound 1, lupeol] here?
A: > 100 mg/L

Q: What about the IC50 [2, 8] of the same molecule?
A: > 100 mg/L

Q: What about the IC50 [3, 8] of the same molecule?
A: > 100 mg/L

Q: What about the IC50 [4, 9] of the same molecule?
A: > 100 mg/L

Q: How did the IC50 [1, 8] turn out when `CC(=O)[C@@H]1CC[C@]2(C)CC[C@]3(C)[C@H](CC[C@@H]4[C@@]5(C)CC[C@H](O)C(C)(C)[C@@H]5CC[C@]43C)[C@@H]12` [Compound 2, 30-norlup-3β-ol-20-one] was run?
A: > 100 mg/L

Q: And the IC50 [2, 8]?
A: > 100 mg/L

Q: What about the IC50 [3, 8] of the same molecule?
A: > 100 mg/L

Q: And the IC50 [4, 9]?
A: > 100 mg/L

Q: Which IC50 [1, 8] does the source give for `C=C(C)[C@@H]1CC[C@]2(C)CC[C@]3(C)[C@@H](CC[C@@H]4[C@@]5(C)C=CC(=O)C(C)(C)[C@@H]5CC[C@]43C)[C@@H]12` [Compound 3, ∆^1-lupenone] here?
A: > 100 mg/L

Q: What about the IC50 [2, 8] of the same molecule?
A: > 100 mg/L

Q: What about the IC50 [3, 8] of the same molecule?
A: > 100 mg/L

Q: And the IC50 [4, 9]?
A: > 100 mg/L

Q: For `C=C(CO)[C@@H]1CC[C@]2(C)CC[C@]3(C)[C@H](CC[C@@H]4[C@@]5(C)CC[C@H](O)C(C)(C)[C@@H]5CC[C@]43C)[C@@H]12` [Compound 4, lup-20(29)-ene-3β,30-diol], which IC50 [1, 8] is on record?
A: > 100 mg/L

Q: What about the IC50 [2, 8] of the same molecule?
A: > 100 mg/L

Q: And the IC50 [3, 8]?
A: > 100 mg/L

Q: And the IC50 [4, 9]?
A: > 100 mg/L

Q: What does the source list for `C=C(C)[C@@H]1CC[C@]2(C)CC[C@]3(C)[C@H](CC[C@@H]4[C@@]5(C)CCC(OC(=O)/C=C/c6ccc(O)c(O)c6)C(C)(C)[C@@H]5CC[C@]43C)[C@@H]12` (some centres unmarked) [Compound 5, lupeol caffeate]?
A: IC50 [1, 8]: 59 ± 0.45 mg/L (≈ 100 µM); IC50 [2, 8]: 59 ± 0.45 mg/L (≈ 100 µM); IC50 [3, 8]: 59 ± 0.45 mg/L (≈ 100 µM); IC50 [4, 9]: 81 ± 1.1 mg/L (≈ 138 µM)

Q: With `C=C(CO)[C@@H]1CC[C@]2(C)CC[C@]3(C)[C@H](CC[C@@H]4[C@@]5(C)CCC(OC(=O)/C=C/c6ccc(O)c(O)c6)C(C)(C)[C@@H]5CC[C@]43C)[C@@H]12` (stereo partly drawn) [Compound 6, 30-hydroxy lup-20(29)-ene 3β-caffeate] as the molecule, how does the IC50 [1, 8] read?
A: 68 ± 1.72 mg/L (≈ 112 µM)

Q: What about the IC50 [2, 8] of the same molecule?
A: 68 ± 1.72 mg/L (≈ 112 µM)

Q: What about the IC50 [3, 8] of the same molecule?
A: 68 ± 1.72 mg/L (≈ 112 µM)

Q: And the IC50 [4, 9]?
A: 68 ± 0.3 mg/L (≈ 112 µM)

Q: `C=C(C=O)C1CCC2(C)CCC3(C)C(CCC4C5(C)CCC(OC(=O)C=Cc6ccc(O)c(O)c6)C(C)(C)C5CCC43C)C12` (stereo not drawn) [Compound 7, lup-20(29)-ene 3β-caffeate-30-al] was tested. Which IC50 [1, 8] did it give?
A: 62 ± 1.42 mg/L (≈ 103 µM)

Q: And the IC50 [2, 8]?
A: 62 ± 1.42 mg/L (≈ 103 µM)

Q: And the IC50 [3, 8]?
A: 62 ± 1.42 mg/L (≈ 103 µM)

Q: And the IC50 [4, 9]?
A: > 100 mg/L

Q: Which results are given for `CC[C@H](CC[C@@H](C)[C@H]1CC[C@H]2[C@@H]3CC=C4C[C@@H](O)CC[C@]4(C)[C@H]3CC[C@]12C)C(C)C` [Compound 9, β-sitosterol]?
A: IC50 [1]: > 100 mg/L; IC50 [2]: > 100 mg/L; IC50 [3]: > 100 mg/L; IC50 ([4]; 48 h): > 100 mg/L; antitumor activity (in words) [5]: no activity

Q: `CC[C@H](CC[C@@H](C)C1CCC2C3C(O)C=C4C[C@@H](O)CC[C@]4(C)C3CC[C@@]21C)C(C)C` (stereo partly drawn) [Compound 11, 7α-hydroxy-β-sitosterol] was tested. Which IC50 [1, 8] did it give?
A: ~8 mg/L (≈ 18.6 µM)

Q: And the IC50 [2, 8]?
A: ~8 mg/L (≈ 18.6 µM)

Q: And the IC50 [3, 8]?
A: ~8 mg/L (≈ 18.6 µM)

Q: What about the IC50 [4, 9] of the same molecule?
A: 70 ± 0.5 mg/L (≈ 163 µM)

Q: And the inhibition at 2 µM ([6]; read-out: phosphodiesterase I enzyme inhibition)?
A: 80.2%

Q: What about the “wound healing of normal cells” value [7] of the same molecule?
A: able to heal the wound at a rate closer to that observed for untreated cells; also recorded: wound size decreased

Q: What about the “antitumor activity (in words)” value [5] of the same molecule?
A: broad-spectrum activity

Q: Which results are given for `CC[C@H](CC[C@@H](C)C1CCC2C3C(=O)C=C4C[C@@H](O)CC[C@]4(C)C3CC[C@@]21C)C(C)C` (stereo partly drawn) [Compound 13, 7-keto-β-sitosterol]?
A: IC50 [1, 8]: 22.3 ± 0.24 mg/L (≈ 52 µM); IC50 [2, 8]: 22.3 ± 0.24 mg/L (≈ 52 µM); IC50 [3, 8]: 22.3 ± 0.24 mg/L (≈ 52 µM); IC50 [4, 9]: 64 ± 1.1 mg/L (≈ 149 µM); antitumor activity (in words) [5]: moderate activity

Q: How did the IC50 ([6]; positive control, read-out: IC50 ± SD, phosphodiesterase I) turn out when `O=C(O)CN(CCN(CC(=O)O)CC(=O)O)CC(=O)O` [EDTA, reference compound] was run?
A: 274 ± 0.007 µM

— publication PMC7827382, “Sterols and Triterpenes from Dobera glabra Growing in Saudi Arabia and Their Cytotoxic Activity” (Plants, 2021)
